The solubility is the concentration that dissolves in the medium under given conditions. A lower solubility goes with little dissolved substance.

Values after ≈ are worked out from the molar mass of the structure shown. Read-outs that look alike come from different tables or passages of the source.

Here are results for three compounds from patent publication US5760017A, “Cyclodextrin derivatives usable in particular for solubilizing hydrophobic chemical compounds such as medicaments and their preparation process” (priority 1993, dated 1998).

The nature of data set [1]: Solubilization of prednisolone in water by the cyclodextrin derivative. The data set is classed as physicochemical. The protocol: 10 μmole of heptakis-6-ethanolamino-6-deoxycyclomaltoheptaose (in hydrochloride form) prepared in example 1, are dissolved in 1 ml of pure water (apyrogenic water for injection) and addition takes place of 5 μmole of prednisolone in the form of a 50 mmole/l concentrated solution in acetone. The acetone is eliminated by nitrogen passage for 10 minutes and the solution is lyophilized.
The residual solid, which contains 10 μmole of the cyclodextrin derivative and 5 μmole of prednisolone, is redissolved in the minimum of water at 25° C.

Data set [2] is described as follows: Ionization potential measurements (pK) by potentiometry. In kind it is physicochemical.
A short description of data set [3]: Solubility in water under physiological conditions. The note with it: sodium phosphate buffer, pH 7.4, aqueous buffer.
A further data set deals with human erythrocytes. The experiment in a line: Hemolytic properties on human erythrocytes. In kind it is cell-based. The settings on record: 5 mmole/l hydrochloride solution (4 ml) with 0.4 ml human erythrocytes, pH 7.4, 30 minutes, 37° C. The protocol: Thus, the hemolytic properties of the derivative obtained in example 1 were tested by contacting 0.4 ml of a solution of human erythrocytes and 4 ml of the 5 mmole/l hydrochloride solution, at a pH of 7.4, for 30 minutes and 37° C.

The mark [4] stands for this setting: potentiometry, single pK, read-out: pK (single).
The mark [5] stands for this setting: Solubility in water under physiological conditions, free base form, pH 7.40, 25° C.
Where [6] appears, read: Solubility in water under physiological conditions, hydrochloride form, pH 7.40, 25° C.

As to `OCCNC[C@H]1O[C@@H]2O[C@H]3[C@H](O)[C@@H](O)[C@@H](O[C@H]4[C@H](O)[C@@H](O)[C@@H](O[C@H]5[C@H](O)[C@@H](O)[C@@H](O[C@H]6[C@H](O)[C@@H](O)[C@@H](O[C@H]7[C@H](O)[C@@H](O)[C@@H](O[C@H]8[C@H](O)[C@@H](O)[C@@H](O[C@H]1[C@H](O)[C@H]2O)O[C@@H]8CNCCO)O[C@@H]7CNCCO)O[C@@H]6CNCCO)O[C@@H]5CNCCO)O[C@@H]4CNCCO)O[C@@H]3CNCCO` [Example 2, heptakis-6-ethanolamino-6-deoxycyclomaltoheptaose], the “maximum prednisolone solubility reached in water in the presence of the cyclodextrin (derivative)” value (“maximum prednisolone solubility reached” for short) in data set [1] was found to be 30 mM. For the same compound, the pKa in data set [2] (setting [4]) came to 7.05. The solubility turned out to be 140 mM (≈ 201 mg/mL) in data set [3] (setting [5]) and 350 mM (≈ 503 mg/mL) in data set [3] (setting [6]).
Regarding `NCCNC[C@H]1O[C@@H]2O[C@H]3[C@H](O)[C@@H](O)[C@@H](O[C@H]4[C@H](O)[C@@H](O)[C@@H](O[C@H]5[C@H](O)[C@@H](O)[C@@H](O[C@H]6[C@H](O)[C@@H](O)[C@@H](O[C@H]7[C@H](O)[C@@H](O)[C@@H](O[C@H]8[C@H](O)[C@@H](O)[C@@H](O[C@H]1[C@H](O)[C@H]2O)O[C@@H]8CO)O[C@@H]7CO)O[C@@H]6CO)O[C@@H]5CO)O[C@@H]4CO)O[C@@H]3CO` [reference compound], the “maximum prednisolone solubility reached” value in data set [1] (25° C., 10 μmole cyclodextrin derivative and 5 μmole prednisolone, lyophilized, redissolved in minimum of water (cyclodextrin derivative at 60 mmole/l for the per-substituted derivative)) turned out to be 12 mM. In addition, the pKa was 7.5 in data set [2] (first of two pK's, read-out: pK (first of two)) and 9.5 in data set [2] (second of two pK's, read-out: pK (second of two)). Also, the solubility in data set [3] was found to be 70 mM (≈ 82.4 mg/mL).
Turning to `OCCNC[C@H]1O[C@@H]2O[C@H]3[C@H](O)[C@@H](O)[C@@H](O[C@H]4[C@H](O)[C@@H](O)[C@@H](O[C@H]5[C@H](O)[C@@H](O)[C@@H](O[C@H]6[C@H](O)[C@@H](O)[C@@H](O[C@H]7[C@H](O)[C@@H](O)[C@@H](O[C@H]8[C@H](O)[C@@H](O)[C@@H](O[C@H]1[C@H](O)[C@H]2O)O[C@@H]8CO)O[C@@H]7CO)O[C@@H]6CO)O[C@@H]5CO)O[C@@H]4CO)O[C@@H]3CO` [Example 1, mono-6-ethanolamino-6-deoxycyclomaltoheptaose], the “maximum prednisolone solubility reached” value in data set [1] worked out at 18 mM. In addition, the pKa in data set [2] (setting [4]) worked out at 7.1. The solubility came to 40 mM (≈ 47.1 mg/mL) in data set [3] (setting [5]) and 95 mM (≈ 112 mg/mL) in data set [3] (setting [6]). The “hemolysis (in words)” value with human erythrocytes is listed as “no hemolysis was observed”.
